Positions count from the first letter of the chain named. Read-outs that look alike come from different tables or passages of the source.
Key:
Hv1 F150A = target: T1, Hv1 F150A (Homo sapiens, UniProt Q96D96, F150A); assay: Inhibition of proton currents, inside-out patch clamp, Hv1 F150A; type: cell-based
T1 sequence (Q96D96 1-273 F150A): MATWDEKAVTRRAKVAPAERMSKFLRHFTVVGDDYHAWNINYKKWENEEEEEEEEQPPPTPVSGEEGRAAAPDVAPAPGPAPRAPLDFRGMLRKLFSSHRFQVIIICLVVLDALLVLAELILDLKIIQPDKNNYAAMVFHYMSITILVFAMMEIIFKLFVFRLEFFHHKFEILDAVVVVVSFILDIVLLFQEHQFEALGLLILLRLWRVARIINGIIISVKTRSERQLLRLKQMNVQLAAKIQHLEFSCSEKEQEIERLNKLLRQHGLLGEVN

Hv1 WT [1] = target: T2, Hv1 WT (Homo sapiens, UniProt Q96D96); type: cell-based; conditions: for IC50: IC50 ± SE, inside-out patch, +120 mV, pHin = pHout = 6.0; for Inhibition of Hv1 WT (comparison of potency): compounds tested at 50 µM, Fig. 5 E
T2 sequence (Q96D96 1-273): T1 sequence (Q96D96 1-273 F150A) with A150F

[2] = Solubility in recording solution; type: physicochemical; conditions: concentrations >1 mM
Hv1 WT [3] = target: T2, Hv1 WT; conditions: dimeric Hv1; ref Hong et al., 2015; cited from earlier work

| SMILES | IC50 (Hv1 F150A) [nM] | IC50 (Hv1 WT [1]; Hv1 WT) [µM] | other results |
| --- | --- | --- | --- |
| Nc1nc2ccccc2[nH]1 [ABI, 2-aminobenzimidazole] | 18 ± 1 | 553 ± 43 | Inhibition of Hv1 F150A (comparison with ABTA) (Hv1 F150A; ABI at 100 nM versus ABTA at 500 nM): much larger inhibition than ABTA; Inhibition of Hv1 F150A (Hv1 F150A; at 500 nM): saturated |
| Nc1nc2cc(F)c(F)cc2[nH]1 [ABIF2, 5,6-difluoro-1H-1,3-benzodiazol-2-amine] | 12 ± 1 | 244 ± 19 | – |
| Nc1nc2c(F)c(F)c(F)cc2[nH]1 [ABIF3, 4,5,6-trifluoro-1H-1,3-benzodiazol-2-amine] | 93 ± 6 | 699 ± 45 | Solubility under tested conditions [2]: not soluble at higher concentrations |
| Nc1nc2c(F)cccc2[nH]1 [ABIFα, 4-fluoro-1H-1,3-benzodiazol-2-amine] | 40 ± 1 | 729 ± 56 | – |
| Nc1nc2cc(F)ccc2[nH]1 [ABIFβ, 6-fluoro-1H-1,3-benzodiazol-2-amine] | 13 ± 1 | 312 ± 17 | – |
| N=C(N)Nc1nc2ccccc2s1 [GBTA, 2-guanidino-benzothiazole] | – | – | Hill coefficient (Hv1 WT [3]): > 1 |
| Cc1[nH]c(N)nc1CCC(=O)c1cc(F)cc(F)c1.Cl [HIF, 3-(2-amino-5-methyl-1H-imidazol-4-yl)-1-(3,5-difluorophenyl)propan-1-one hydrochloride] | – | 13 ± 1 | IC50,HIFNF/IC50,HIF (Hv1 F150A; Hv1 F150A): ~7.0; IC50,HIFNF/IC50,HIF (Hv1 WT [1]; Hv1 WT): ~5.4 |
| Cc1[nH]c(N)nc1/C=C/C(=O)c1cc(F)cc(F)c1.Cl [HIFEN, (2E)-3-(2-amino-5-methyl-1H-imidazol-4-yl)-1-(3,5-difluorophenyl)prop-2-en-1-one hydrochloride] | – | – | h ± SE (Hill coefficient) (Hv1 WT [1]; Hv1 WT (dimeric), fit with Hill equation): ~1.5; Inhibition of Hv1 WT (comparison of potency) (Hv1 WT [1]; 50 µM): slightly more potent than HIF |
| Cc1[nH]c(N)nc1CCC(=O)c1ccccc1.Cl [HIFNF, 3-(2-amino-5-methyl-1H-imidazol-4-yl)-1-phenylpropan-1-one hydrochloride] | – | – | IC50,ABI/IC50,HIFNF (Hv1 F150A; Hv1 F150A): ~0.05; IC50,ABI/IC50,HIFNF (Hv1 WT [1]; Hv1 WT): ~7.7 |
| Cc1[nH]c(N)nc1CCC(O)c1cc(F)cc(F)c1.Cl (stereo not shown) [HIFOH, 3-(2-amino-5-methyl-1H-imidazol-4-yl)-1-(3,5-difluorophenyl)propan-1-ol hydrochloride] | – | – | Inhibition of Hv1 WT (comparison of potency) (Hv1 WT [1]): less effective at reducing the proton current than HIF, HIFNH, and HIFEN |
